In patent US20070093520A1, “Method of treatment of diarrhea-predominant irritable bowel syndrome in a subject” (priority 2005, published 2007):

System: diarrhea-predominant IBS subjects
Assay: 3007 Study: open-label 52-week safety study, adverse events and withdrawals
Conditions: Placebo/Cilansetron 2 mg

## Cc1nccn1C[C@H]1CCc2c(c3cccc4c3n2CCC4)C1=O [cilansetron, (R)-(−)-4,5,6,8,9,10-hexahydro-10-[(2-methyl-1H-imidazol-1-yl)methyl]-11H-pyrido-[3,2,1-jk]-carbazol-11-one]
  TEAE: Eructation: 0 n (%)
  TEAE: Eye Injuries NEC: 0 n (%)
  TEAE: Faecal Abnormality NOS: 1 (<1%) n (%)
  TEAE: Faecal Impaction: 1 (<1%) n (%)
  TEAE: Faecal Incontinence: 3 (1%) n (%)
  TEAE: Faecal Occult Blood Positive: 8 (3%) n (%)
  TEAE: Faeces Abnormal: 7 (3%) n (%)
  TEAE: Faeces Hard: 5 (2%) n (%)
  TEAE: Fibromyalgia: 0 n (%)
  TEAE: Flatulence: 10 (4%) n (%)
  TEAE: Flatulence, Bloating and Distension: 13 (5%) n (%)
  TEAE: Food Poisoning NOS: 2 (<1%) n (%)
  TEAE: Foot Fracture: 1 (<1%) n (%)
  TEAE: Fractures and Dislocations NEC: 0 n (%)
  TEAE: Frequent Bowel Movements: 0 n (%)
  TEAE: Fungal Infection NOS: 1 (<1%) n (%)
  TEAE: Fungal Infections NEC: 4 (1%) n (%)
  TEAE: Gamma-Glutamyltransferase Increased: 3 (1%) n (%)
  TEAE: Gastric Irritation: 0 n (%)
  TEAE: Gastritis (Excl Infective): 0 n (%)
  TEAE: Gastritis NOS: 0 n (%)
  TEAE: Gastroenteritis NOS: 5 (2%) n (%)
  TEAE: Gastroenteritis Viral NOS: 6 (2%) n (%)
  TEAE: Gastrointestinal Atonic and Hypomotility Disorders NEC: 63 (23%) n (%)
  TEAE: Gastrointestinal Disorders: 134 (48%) n (%)
  TEAE: Gastrointestinal Disorders NEC: 2 (<1%) n (%)
  TEAE: Gastrointestinal Dyskinetic Disorders: 2 (<1%) n (%)
  TEAE: Gastrointestinal Histopathology Procedures: 12 (4%) n (%)
  TEAE: Gastrointestinal Infections - Pathogen Class Unspecified: 5 (2%) n (%)
  TEAE: Gastrointestinal Inflammatory Disorders NEC: 1 (<1%) n (%)
  TEAE: Gastrointestinal Motility Disorder NOS: 1 (<1%) n (%)
  TEAE: Gastrointestinal Mucosal Dystrophies and Secretion Disorders: 0 n (%)
  TEAE: Gastrointestinal Signs and Symptoms NEC: 2 (<1%) n (%)
  TEAE: Gastrointestinal Spastic and Hypermotility Disorders: 0 n (%)
  TEAE: Gastrointestinal and Abdominal Pains (Excl Oral and Throat): 33 (12%) n (%)
  TEAE: Gingival Abscess: 0 n (%)
  TEAE: Gingival Atrophy: 0 n (%)
  TEAE: Gingival Disorders NEC: 2 (<1%) n (%)
  TEAE: Gingival Pain: 0 n (%)
  TEAE: Gingival Pains: 0 n (%)
  TEAE: Gingivitis: 2 (<1%) n (%)
  TEAE: Gingivitis Infection NOS: 0 n (%)
  TEAE: Glucose Urine Present: 0 n (%)
  TEAE: Groin Pain: 0 n (%)
  TEAE: Haematocrit Decreased: 0 n (%)
  TEAE: Haemoglobin Decreased: 0 n (%)
  TEAE: Haemorrhoidal Haemorrhage: 2 (<1%) n (%)
  TEAE: Haemorrhoids: 7 (3%) n (%)
  TEAE: Haemorrhoids Aggravated: 1 (<1%) n (%)
  TEAE: Haemorrhoids and Gastrointestinal Varices (Excl Oesophageal): 9 (3%) n (%)
  TEAE: Halitosis: 0 n (%)
  TEAE: Headache NOS: 12 (4%) n (%)
  TEAE: Headache NOS Aggravated: 2 (<1%) n (%)
  TEAE: Headaches NEC: 14 (5%) n (%)
  TEAE: Heart Rate Increased: 1 (<1%) n (%)
  TEAE: Heart Rate and Pulse Investigations: 1 (<1%) n (%)
  TEAE: Heat Exhaustion: 0 n (%)
  TEAE: Heat Injuries (Excl Thermal Burns): 0 n (%)
  TEAE: Helicobacter Pylori Antibody Positive: 0 n (%)
  TEAE: Herpes Simplex: 1 (<1%) n (%)
  TEAE: Herpes Simplex Aggravated: 0 n (%)
  TEAE: Herpes Viral Infections: 2 (<1%) n (%)
  TEAE: Herpes Zoster: 1 (<1%) n (%)
  TEAE: Hiatus Hernia: 0 n (%)
  TEAE: Hyperreflexia: 0 n (%)
  TEAE: Hypoaesthesia: 1 (<1%) n (%)
  TEAE: Infected Varicose Vein: 0 n (%)
  TEAE: Infections NEC: 1 (<1%) n (%)
  TEAE: Infections and Infestations: 67 (24%) n (%)
  TEAE: Influenza: 7 (3%) n (%)
  TEAE: Influenza Viral Infections: 7 (3%) n (%)
  TEAE: Inguinal Hernia NOS: 1 (<1%) n (%)
  TEAE: Inguinal Hernias: 1 (<1%) n (%)
  TEAE: Injury, Poisoning and Procedural Complications: 21 (8%) n (%)
  TEAE: Intervertebral Disc Degeneration NOS: 0 n (%)
  TEAE: Intervertebral Disc Disorder NOS: 0 n (%)
  TEAE: Intervertebral Disc Disorders NEC: 0 n (%)
  TEAE: Intervertebral Disc Herniation: 0 n (%)
  TEAE: Intestinal Haemorrhages: 4 (1%) n (%)
  TEAE: Intraocular Pressure Increased: 1 (<1%) n (%)
  TEAE: Investigations: 49 (18%) n (%)
  TEAE: Irritable Bowel Syndrome: 0 n (%)
  TEAE: Irritable Bowel Syndrome Aggravated: 0 n (%)
  TEAE: Joint Related Disorders NEC: 1 (<1%) n (%)
  TEAE: Joint Related Signs and Symptoms: 3 (1%) n (%)
  TEAE: Joint Sprain: 3 (1%) n (%)
  TEAE: Joint Swelling: 0 n (%)
  TEAE: Kidney Infection NOS: 1 (<1%) n (%)
  TEAE: Laceration: 3 (1%) n (%)
  TEAE: Ligament Sprain: 1 (<1%) n (%)
  TEAE: Limb Discomfort NOS: 1 (<1%) n (%)
  TEAE: Limb Injuries NEC (Incl Traumatic Amputation): 3 (1%) n (%)
  TEAE: Limb Injury NOS: 0 n (%)
  TEAE: Lip and Palate Disorders NEC: 1 (<1%) n (%)
  TEAE: Liver Function Analyses: 11 (4%) n (%)
  TEAE: Liver Function Tests NOS Abnormal: 2 (<1%) n (%)
  TEAE: Localised Infection: 1 (<1%) n (%)
  TEAE: Localised Osteoarthritis: 0 n (%)
  TEAE: Loss of Consciousness: 0 n (%)
  TEAE: Lower Limb Fracture NOS: 1 (<1%) n (%)
  TEAE: Lower Limb Fractures and Dislocations: 2 (<1%) n (%)
  TEAE: Lower Respiratory Tract and Lung Infections: 7 (3%) n (%)
  TEAE: Lymphocyte Count Increased: 0 n (%)
  TEAE: Memory Loss (Excl Dementia): 0 n (%)
  TEAE: Metabolic Bone Disorders: 1 (<1%) n (%)
  TEAE: Metabolism Tests NEC: 2 (<1%) n (%)
  TEAE: Migraine Headaches: 0 n (%)
  TEAE: Migraine NOS: 0 n (%)
  TEAE: Mineral and Electrolyte Analyses: 0 n (%)
  TEAE: Monoarthritis: 1 (<1%) n (%)
  TEAE: Monocyte Count Decreased: 1 (<1%) n (%)
  TEAE: Monocyte Count Increased: 0 n (%)
  TEAE: Mononeuropathies: 1 (<1%) n (%)
  TEAE: Movement Disorder NOS: 1 (<1%) n (%)
  TEAE: Muscle Cramps: 2 (<1%) n (%)
  TEAE: Muscle Infections and Inflammations: 1 (<1%) n (%)
  TEAE: Muscle Pains: 1 (<1%) n (%)
  TEAE: Muscle Related Signs and Symptoms NEC: 2 (<1%) n (%)
  TEAE: Muscle Spasms: 0 n (%)
  TEAE: Muscle Strain: 3 (1%) n (%)
  TEAE: Muscle Tone Abnormalities: 0 n (%)
  TEAE: Muscle, Tendon and Ligament Injuries: 4 (1%) n (%)
  TEAE: Musculoskeletal Chest Pain: 0 n (%)
  TEAE: Musculoskeletal and Connective Tissue Disorders: 31 (11%) n (%)
  TEAE: Musculoskeletal and Connective Tissue Signs and Symptoms NEC: 14 (5%) n (%)
  TEAE: Musculoskeletal and Soft Tissue Imaging Procedures: 1 (<1%) n (%)
  TEAE: Myalgia: 1 (<1%) n (%)
  TEAE: Myasthenia Gravis: 1 (<1%) n (%)
  TEAE: Mycoplasma Infections: 0 n (%)
  TEAE: Myeloradiculopathy: 1 (<1%) n (%)
  TEAE: Myositis: 1 (<1%) n (%)
  TEAE: Nail Fungal Infection NOS: 2 (<1%) n (%)
  TEAE: Nail Infection NOS: 0 n (%)
  TEAE: Nasopharyngitis: 10 (4%) n (%)
  TEAE: Nausea: 10 (4%) n (%)
  TEAE: Nausea and Vomiting Symptoms: 14 (5%) n (%)
  TEAE: Neck Pain: 0 n (%)
  TEAE: Nervous System Disorders: 23 (8%) n (%)
  TEAE: Neurological Signs and Symptoms NEC: 2 (<1%) n (%)
  TEAE: Neuromuscular Junction Dysfunction: 1 (<1%) n (%)
  TEAE: Neutrophil Count Decreased: 0 n (%)
  TEAE: Night Cramps: 0 n (%)
  TEAE: Nitrite Urine Present: 1 (<1%) n (%)
  TEAE: Non-Accidental Overdose: 0 n (%)
  TEAE: Non-Site Specific Injuries NEC: 6 (2%) n (%)
  TEAE: Non-Site Specific Procedural Complications: 5 (2%) n (%)
  TEAE: Ophthalmic Function Diagnostic Procedures: 1 (<1%) n (%)
  TEAE: Oral Dryness and Saliva Altered: 1 (<1%) n (%)
  TEAE: Osteoarthritis Aggravated: 0 n (%)
  TEAE: Osteoarthropathies: 0 n (%)
  TEAE: Osteopenia: 1 (<1%) n (%)
  TEAE: Osteoporosis NOS: 1 (<1%) n (%)
  TEAE: Otitis Media NOS: 1 (<1%) n (%)
  TEAE: Overdoses: 0 n (%)
  TEAE: Pain in Limb: 4 (1%) n (%)
  TEAE: Paraesthesias and Dysaesthesias: 1 (<1%) n (%)
  TEAE: Parkinson's Disease NOS: 0 n (%)
  TEAE: Parkinson's Disease and Parkinsonism: 0 n (%)
  TEAE: Periorbital Haematoma: 0 n (%)
  TEAE: Peripheral Swelling: 0 n (%)
  TEAE: Pharyngitis Streptococcal: 3 (1%) n (%)
  TEAE: Physical Examination Procedures: 1 (<1%) n (%)
  TEAE: Plantar Fasciitis: 2 (<1%) n (%)
  TEAE: Pneumonia Mycoplasmal: 0 n (%)
  TEAE: Pneumonia NOS: 1 (<1%) n (%)
  TEAE: Popliteal Bursitis: 1 (<1%) n (%)
  TEAE: Post Procedural Discomfort: 1 (<1%) n (%)
  TEAE: Post Procedural Pain: 4 (1%) n (%)
  TEAE: Proctalgia: 4 (1%) n (%)
